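Method: 48-hour compound exposure of cells in 96-well plates, five concentrations, linear interpolation of endpoints. GI50: concentration for 50% inhibition of growth. TGI is the concentration that stops growth completely.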

In PubChem BioAssay (NCI) one finds TGI and GI50 data, which are given here for 11 compounds.

Some test systems named below: NCI-H522 lung; T-47D breast; BT-549 breast; HOP-62 NSCLC; LOX IMVI melanoma; SF-539 CNS; MALME-3M melanoma; MCF7 breast; NCI-H460 lung; MDA-MB-435; COLO 205 colon.
Common to all, as to assay: inhibition of tumour cell growth, NCI panel, 48 h

`CC(=O)O[C@H]1[C@@H](N2CCN(C)CC2)C[C@H]2[C@@H]3CC=C4C[C@@H](N5CCCC5)CC[C@]4(C)[C@H]3CC[C@@]21C`: the TGI with NCI-H522 lung was more than 100 µM; in the assay with T-47D breast it was more than 100 µM; in the assay on BT-549 breast, more than 100 µM; in the assay on HOP-62 NSCLC, more than 100 µM; with LOX IMVI melanoma it was 39.4 µM; in the assay with SF-539 CNS, 29.3 µM. Also, the TGI in the assay on MALME-3M melanoma is 51 µM; in the assay on MCF7 breast, more than 100 µM; with NCI-H460 lung, more than 100 µM; in the assay with MDA-MB-435, more than 100 µM; in the assay on COLO 205 colon it was more than 100 µM.

In the case of `CC1(C)O[C@@H]2[C@@H]3OC(=O)C[C@@H]3[C@@H](COCc3ccccc3)[C@@H]2O1`, the TGI in the assay on NCI-H522 lung, in the assay with T-47D breast, with BT-549 breast, in the assay with HOP-62 NSCLC, in the assay with LOX IMVI melanoma and with SF-539 CNS was more than 100 µM each time. Moreover, the TGI in the assay with MALME-3M melanoma, with MCF7 breast, in the assay with NCI-H460 lung, in the assay on MDA-MB-435 and with COLO 205 colon was more than 100 µM throughout.

Regarding `O=C(O)c1cc(Sc2ccc([N+](=O)[O-])c(C(=O)O)c2)ccc1[N+](=O)[O-]`, the GI50 in the assay on NCI-H522 lung is more than 100 µM. Also, the TGI with NCI-H522 lung, in the assay with T-47D breast, in the assay on BT-549 breast, in the assay on HOP-62 NSCLC, with LOX IMVI melanoma and in the assay on SF-539 CNS was more than 100 µM in each case. Further, the TGI in the assay with MALME-3M melanoma is more than 78.9 µM; with MCF7 breast, more than 100 µM; in the assay with NCI-H460 lung, more than 100 µM; in the assay with MDA-MB-435, more than 100 µM; in the assay with COLO 205 colon, more than 100 µM.

With `C/C(=N\Nc1nc2ccccc2o1)c1ccncn1`, the TGI in the assay on NCI-H522 lung is more than 32.7 µM; in the assay with T-47D breast it was 23.2 µM; in the assay with BT-549 breast, more than 100 µM; in the assay on HOP-62 NSCLC it was more than 68.7 µM; in the assay on LOX IMVI melanoma, more than 37.1 µM; with SF-539 CNS, more than 100 µM. The TGI with MALME-3M melanoma is 97.5 µM; in the assay with MCF7 breast, more than 43.8 µM; in the assay on NCI-H460 lung it was more than 42.6 µM; with MDA-MB-435 it was more than 75.8 µM; with COLO 205 colon, more than 51.3 µM.

`Cc1c2cccc-2c(OCCO)cc2c1[nH]c1ccccc12`: the TGI in the assay on NCI-H522 lung came out at 5.38 µM; in the assay with T-47D breast it was 24.2 µM; in the assay on BT-549 breast it was 7.34 µM; with HOP-62 NSCLC, 14.5 µM; in the assay with LOX IMVI melanoma, 4.97 µM; with SF-539 CNS it was 3.5 µM. Further, the TGI was found to be 3.49 µM with MALME-3M melanoma; 19.4 µM in the assay on MCF7 breast; 18.3 µM in the assay with NCI-H460 lung; 15.8 µM in the assay on MDA-MB-435; 9.4 µM in the assay on COLO 205 colon.

In the case of `COC(Cc1ccccc1)NC(C)=O` (configuration not stated), the TGI with NCI-H522 lung, in the assay with T-47D breast, with BT-549 breast, in the assay with HOP-62 NSCLC, in the assay with LOX IMVI melanoma and with SF-539 CNS was more than 100 µM throughout. In addition, the TGI in the assay on MALME-3M melanoma, in the assay with MCF7 breast, in the assay on NCI-H460 lung, in the assay with MDA-MB-435 and with COLO 205 colon was more than 100 µM in each case.

Consider `COC(=O)[C@@H]1C[C@]2(CC=C(C)C)c3ccccc3N(S(=O)(=O)c3ccccc3)[C@@H]2N1C(=O)OC`, for which the TGI was 67.3 µM with NCI-H522 lung; more than 100 µM in the assay on T-47D breast; more than 100 µM with BT-549 breast; more than 100 µM with HOP-62 NSCLC; more than 100 µM in the assay with LOX IMVI melanoma; 86.3 µM with SF-539 CNS. The TGI in the assay with MALME-3M melanoma was more than 100 µM; with MCF7 breast, 48.5 µM; in the assay with NCI-H460 lung, 94 µM; in the assay on MDA-MB-435 it was 45 µM; with COLO 205 colon, more than 100 µM.

On to `CC(C)=CCC[C@H](C)[C@H]1CC[C@@H](C)c2cc(O)c(C)cc21`, for which the TGI turned out to be 32.4 µM in the assay with NCI-H522 lung; 36.8 µM in the assay with T-47D breast; 32.7 µM in the assay with BT-549 breast; 35.6 µM in the assay with HOP-62 NSCLC; 32 µM in the assay on LOX IMVI melanoma; 33.8 µM in the assay with SF-539 CNS. Besides, the TGI in the assay on MALME-3M melanoma is 33.4 µM; in the assay with MCF7 breast it was 32.5 µM; in the assay with NCI-H460 lung, 33.7 µM; in the assay on MDA-MB-435, 38.8 µM; with COLO 205 colon, 34.3 µM.

Take `CC(=O)OCc1cn(S(=O)(=O)c2ccc(C)cc2)cn1`: the TGI with NCI-H522 lung, with T-47D breast, in the assay on BT-549 breast, in the assay on HOP-62 NSCLC, in the assay on LOX IMVI melanoma and in the assay on SF-539 CNS was more than 100 µM in each case. For the same compound, the TGI with MALME-3M melanoma, with MCF7 breast, with NCI-H460 lung, with MDA-MB-435 and in the assay with COLO 205 colon was more than 100 µM in each case.

Consider `CN1CCN(c2ccc(-n3cc(C(=O)O)c(=O)c4cc(F)c(N5CCN(C)CC5)cc43)nc2)CC1`, for which the TGI with NCI-H522 lung, in the assay on T-47D breast, with BT-549 breast, with HOP-62 NSCLC, in the assay with LOX IMVI melanoma and with SF-539 CNS was more than 100 µM throughout. Besides, the TGI in the assay on MALME-3M melanoma, in the assay with MCF7 breast, in the assay with NCI-H460 lung, with MDA-MB-435 and in the assay with COLO 205 colon was more than 100 µM throughout.

Regarding `CCOP(=O)(OCC)/C(C#N)=C/c1c(C)[nH]c2ccccc12`, the TGI in the assay on NCI-H522 lung, with T-47D breast, in the assay on BT-549 breast, in the assay on HOP-62 NSCLC, in the assay with LOX IMVI melanoma and in the assay with SF-539 CNS was more than 100 µM in each case. Also, the TGI in the assay with MALME-3M melanoma, in the assay with MCF7 breast, in the assay on NCI-H460 lung, with MDA-MB-435 and in the assay with COLO 205 colon was more than 100 µM each time.
